This is an account of results in patent US10160747B2, “Compounds and methods for kinase modulation, and indications therefor” (Plexxikon Inc., priority 2016, dated 2018).

The target in this test is T1, FLT3-ITD (Homo sapiens, UniProt P36888).
T1 sequence (P36888 1-993): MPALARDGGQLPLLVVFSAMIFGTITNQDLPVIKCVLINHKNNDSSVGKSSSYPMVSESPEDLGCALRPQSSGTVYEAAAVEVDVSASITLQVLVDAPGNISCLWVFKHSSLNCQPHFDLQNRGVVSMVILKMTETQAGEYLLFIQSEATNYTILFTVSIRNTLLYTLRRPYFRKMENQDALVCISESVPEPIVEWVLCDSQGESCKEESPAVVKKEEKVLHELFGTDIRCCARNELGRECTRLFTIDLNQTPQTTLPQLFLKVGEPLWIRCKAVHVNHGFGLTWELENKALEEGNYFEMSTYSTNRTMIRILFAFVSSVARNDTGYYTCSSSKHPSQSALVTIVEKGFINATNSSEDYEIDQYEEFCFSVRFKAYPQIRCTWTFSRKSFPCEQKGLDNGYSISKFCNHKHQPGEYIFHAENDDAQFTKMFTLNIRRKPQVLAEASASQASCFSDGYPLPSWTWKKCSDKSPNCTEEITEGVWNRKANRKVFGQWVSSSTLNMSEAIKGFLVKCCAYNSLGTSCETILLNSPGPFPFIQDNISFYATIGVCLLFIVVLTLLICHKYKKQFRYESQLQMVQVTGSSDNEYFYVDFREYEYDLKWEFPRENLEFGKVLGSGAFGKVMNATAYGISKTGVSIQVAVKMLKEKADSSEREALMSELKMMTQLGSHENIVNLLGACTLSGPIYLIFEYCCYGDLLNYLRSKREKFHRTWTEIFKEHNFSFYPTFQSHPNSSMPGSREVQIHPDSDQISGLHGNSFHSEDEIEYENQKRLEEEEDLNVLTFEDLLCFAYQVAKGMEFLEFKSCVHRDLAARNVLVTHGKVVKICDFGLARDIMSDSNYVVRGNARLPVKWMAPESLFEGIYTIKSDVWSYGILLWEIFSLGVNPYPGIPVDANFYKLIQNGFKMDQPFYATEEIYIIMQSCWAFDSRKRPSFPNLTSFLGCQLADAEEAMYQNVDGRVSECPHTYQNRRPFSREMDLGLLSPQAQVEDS
The test can be described thus: FLT3-ITD recombinant enzyme kinase assay (AlphaScreen). Format: biochemical. Conditions: 8 pt; read-out: FLT3_ITD 8 pt: IC50. Summed up: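 Kinase activity of recombinant FLT3-ITD, FLT3-D835Y and c-KIT was followed via phosphotyrosine formation on a 30 nM biotin-peptide substrate, captured on streptavidin donor and anti-phosphotyrosine acceptor AlphaScreen beads. ATP was set at 10 μM for FLT3 and 100 μM for c-KIT.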
For orientation: Alpha assays give light when donor and acceptor beads are brought close together.

pIC50: −log10 of the molar value.

As usually defined, the pIC50 is the IC50 on a negative log10 scale, so that one unit is a factor of ten. `COc1ncc(NC(=O)Cc2ccc(-c3cnc4[nH]nc(NC(=O)C(F)(F)F)c4c3)cc2)cc1C(F)(F)F` [Compound P-0215, 2,2,2-trifluoro-N-[5-[4-[2-[[6-methoxy-5-(trifluoromethyl)-3-pyridyl]amino]-2-oxo-ethyl]phenyl]-1H-pyrazolo[3,4-b]pyridin-3-yl]acetamide]: the pIC50 is 5.00 to 10.00.

As for `O=C(Cc1ccc(-c2cnc(Nc3cnn(C4CC4)c3)nc2)cc1)Nc1ccc(C(F)(F)F)cn1` [Compound P-0236, 2-[4-[2-[(1-cyclopropylpyrazol-4-yl)amino]pyrimidin-5-yl]phenyl]-N-[5-(trifluoromethyl)-2-pyridyl]acetamide], the pIC50 was 5.00 to 10.00.

Turning to `COCCn1cc(Nc2ncc(-c3ccc(CC(=O)Nc4cc(C(F)(F)F)ccn4)cc3)cn2)cn1` [Compound P-0222, 2-[4-[2-[[1-(2-methoxyethyl)pyrazol-4-yl]amino]pyrimidin-5-yl]phenyl]-N-[4-(trifluoromethyl)-2-pyridyl]acetamide], the pIC50 was 5.00 to 10.00.

Regarding `CCn1cc(Nc2ncc(-c3ccc(CC(=O)Nc4ccc(C(F)(F)F)nc4)c(F)c3)cn2)cn1` [Compound P-0257, 2-[4-[2-[(1-ethylpyrazol-4-yl)amino]pyrimidin-5-yl]-2-fluoro-phenyl]-N-[6-(trifluoromethyl)-3-pyridyl]acetamide], the pIC50 was 5.00 to 10.00.

As for `Cn1cc(Nc2ncc(-c3cc(F)c(CC(=O)Nc4cc(C(F)(F)F)ccn4)cc3F)cn2)cn1` [Compound P-0019, 2-[2,5-difluoro-4-[2-[(1-methylpyrazol-4-yl)amino]pyrimidin-5-yl]phenyl]-N-[4-(trifluoromethyl)-2-pyridyl]acetamide], the pIC50 was 5.00 to 10.00.

Turning to `O=C(Cc1ccc(-c2cnc(Nc3cnn(C(F)F)c3)nc2)cc1)Nc1cncc(C(F)(F)F)c1` [Compound P-0209, 2-[4-[2-[[1-(difluoromethyl)pyrazol-4-yl]amino]pyrimidin-5-yl]phenyl]-N-[5-(trifluoromethyl)-3-pyridyl]acetamide], the pIC50 was 5.00 to 10.00.

With `O=C(Cc1ccc(-c2cnc(Nc3cnn(C4CC4)c3)nc2)cc1)Nc1ccc(C(F)(F)F)nc1` [Compound P-0235, 2-[4-[2-[(1-cyclopropylpyrazol-4-yl)amino]pyrimidin-5-yl]phenyl]-N-[6-(trifluoromethyl)-3-pyridyl]acetamide], the negative logarithm of the IC50 (pIC50) was 5.00 to 10.00.

Regarding `CCOc1n[nH]c2ncc(-c3ccc(CC(=O)Nc4cnc(C)c(C(F)(F)F)c4)cc3)cc12` [Compound P-0217, 2-[4-(3-ethoxy-1H-pyrazolo[3,4-b]pyridin-5-yl)phenyl]-N-[6-methyl-5-(trifluoromethyl)-3-pyridyl]acetamide], the pIC50 was 5.00 to 10.00.

Take `O=C(Cc1ccc(-c2cnc(Nc3cnn(C4CC4)c3)nc2)cc1F)Nc1ccc(C(F)(F)F)nc1` [Compound P-0242, 2-[4-[2-[(1-cyclopropylpyrazol-4-yl)amino]pyrimidin-5-yl]-2-fluoro-phenyl]-N-[6-(trifluoromethyl)-3-pyridyl]acetamide]: the pIC50 was 5.00 to 10.00.

`CCn1cc(Nc2ncc(-c3ccc(CC(=O)Nc4cc(C(F)(F)F)ccn4)cc3)cn2)cn1` [Compound P-0250, 2-[4-[2-[(1-ethylpyrazol-4-yl)amino]pyrimidin-5-yl]phenyl]-N-[4-(trifluoromethyl)-2-pyridyl]acetamide]: the negative logarithm of the IC50 (pIC50) was 5.00 to 10.00.

Turning to `O=C(Cc1ccc(-c2cnc(Nc3cnn(C4CC4)c3)nc2)cc1F)Nc1cnc(Cl)c(C(F)(F)F)c1` [Compound P-0240, N-[6-chloro-5-(trifluoromethyl)-3-pyridyl]-2-[4-[2-[(1-cyclopropylpyrazol-4-yl)amino]pyrimidin-5-yl]-2-fluoro-phenyl]acetamide], the pIC50 was 5.00 to 10.00.

On to `Cn1cnc(Nc2ncc(-c3ccc(CC(=O)Nc4cc(C(F)(F)F)ccn4)cc3)cn2)c1` [Compound P-0022, 2-[4-[2-[(1-methylimidazol-4-yl)amino]pyrimidin-5-yl]phenyl]-N-[4-(trifluoromethyl)-2-pyridyl]acetamide], for which the pIC50 is 5.00 to 10.00.

As for `O=C(Cc1ccc(-c2cnc(Nc3cnn(C4CC4)c3)nc2)cc1)Nc1cc(C(F)(F)F)ccn1` [Compound P-0237, 2-[4-[2-[(1-cyclopropylpyrazol-4-yl)amino]pyrimidin-5-yl]phenyl]-N-[4-(trifluoromethyl)-2-pyridyl]acetamide], the negative logarithm of the IC50 (pIC50) is 5.00 to 10.00.

With `CCn1cc(Nc2ncc(-c3ccc(CC(=O)Nc4cnc(OC)c(C(F)(F)F)c4)cc3)cn2)cn1` [Compound P-0253, 2-[4-[2-[(1-ethylpyrazol-4-yl)amino]pyrimidin-5-yl]phenyl]-N-[6-methoxy-5-(trifluoromethyl)-3-pyridyl]acetamide], the pIC50 is 5.00 to 10.00.

As to `CCn1cc(Nc2ncc(-c3ccc(CC(=O)Nc4ccc(C(F)(F)F)cn4)c(F)c3)cn2)cn1` [Compound P-0256, 2-[4-[2-[(1-ethylpyrazol-4-yl)amino]pyrimidin-5-yl]-2-fluoro-phenyl]-N-[5-(trifluoromethyl)-2-pyridyl]acetamide], the negative-log IC50 (pIC50) was 5.00 to 10.00.

`COc1ncc(NC(=O)Cc2ccc(-c3cnc(Nc4cnn(C5CC5)c4)nc3)cc2F)cc1C(F)(F)F` [Compound P-0241, 2-[4-[2-[(1-cyclopropylpyrazol-4-yl)amino]pyrimidin-5-yl]-2-fluoro-phenyl]-N-[6-methoxy-5-(trifluoromethyl)-3-pyridyl]acetamide]: the pIC50 was 5.00 to 10.00.

`COc1ncc(NC(=O)Cc2ccc(-c3cnc(Nc4cn[nH]c4C)nc3)cc2)cc1C(F)(F)F` [Compound P-0221, N-[6-methoxy-5-(trifluoromethyl)-3-pyridyl]-2-[4-[2-[(5-methyl-1H-pyrazol-4-yl)amino]pyrimidin-5-yl]phenyl]acetamide]: the pIC50 was 5.00 to 10.00.

With `Cc1nn(C)cc1Nc1ncc(-c2ccc(CC(=O)Nc3cnc(C)c(C(F)(F)F)c3)cc2)cn1` [Compound P-0228, 2-[4-[2-[(1,3-dimethylpyrazol-4-yl)amino]pyrimidin-5-yl]phenyl]-N-[6-methyl-5-(trifluoromethyl)-3-pyridyl]acetamide], the negative logarithm of the IC50 (pIC50) was 5.00 to 10.00.

As to `CCn1cc(Nc2ncc(-c3ccc(CC(=O)Nc4cnc(C)c(C(F)(F)F)c4)c(F)c3)cn2)cn1` [Compound P-0261, 2-[4-[2-[(1-ethylpyrazol-4-yl)amino]pyrimidin-5-yl]-2-fluoro-phenyl]-N-[6-methyl-5-(trifluoromethyl)-3-pyridyl]acetamide], the pIC50 is 5.00 to 10.00.

For `Cn1cc(Nc2ncc(-c3cc(F)c(CC(=O)Nc4cncc(C(F)(F)F)c4)cc3F)cn2)cn1` [Compound P-0207, 2-[2,5-difluoro-4-[2-[(1-methylpyrazol-4-yl)amino]pyrimidin-5-yl]phenyl]-N-[5-(trifluoromethyl)-3-pyridyl]acetamide], the pIC50 was 5.00 to 10.00.

For `COc1n[nH]c2ncc(-c3ccc(CC(=O)Nc4cnc(C)c(C(F)(F)F)c4)cc3)cc12` [Compound P-0218, 2-[4-(3-methoxy-1H-pyrazolo[3,4-b]pyridin-5-yl)phenyl]-N-[6-methyl-5-(trifluoromethyl)-3-pyridyl]acetamide], the pIC50 was 5.00 to 10.00.

In the case of `CCn1cc(Nc2ncc(-c3ccc(CC(=O)Nc4cncc(C(F)(F)F)c4)c(F)c3)cn2)cn1` [Compound P-0258, 2-[4-[2-[(1-ethylpyrazol-4-yl)amino]pyrimidin-5-yl]-2-fluoro-phenyl]-N-[5-(trifluoromethyl)-3-pyridyl]acetamide], the pIC50 was 5.00 to 10.00.

For the molecule `CCn1cc(Nc2ncc(-c3ccc(CC(=O)Nc4cc(C(F)(F)F)ccn4)c(F)c3)cn2)cn1` [Compound P-0255, 2-[4-[2-[(1-ethylpyrazol-4-yl)amino]pyrimidin-5-yl]-2-fluoro-phenyl]-N-[4-(trifluoromethyl)-2-pyridyl]acetamide], the pIC50 is 5.00 to 10.00.

Turning to `Cn1cc(Nc2ncc(-c3ccc(CC(=O)Nc4cncc(C(F)(F)F)c4)cc3F)cn2)cn1` [Compound P-0205, 2-[3-fluoro-4-[2-[(1-methylpyrazol-4-yl)amino]pyrimidin-5-yl]phenyl]-N-[5-(trifluoromethyl)-3-pyridyl]acetamide], the pIC50 is 5.00 to 10.00.

Take `COc1cc(-c2cc3cc(-c4ccc(CC(=O)Nc5cncc(C(F)(F)F)c5)cc4F)cnc3[nH]2)ccn1` [Compound P-0200, 2-(3-fluoro-4-(2-(2-methoxypyridin-4-yl)-1H-pyrrolo[2,3-b]pyridin-5-yl)phenyl)-N-(5-(trifluoromethyl)pyridin-3-yl)acetamide]: the pIC50 was 5.00 to 10.00.
